This experiment has as its target T1, mouse VISTA (mVISTA) (Mus musculus, UniProt Q9D659).
T1 construct: expressed in transfected cells; host or cells: Human embryonic kidney 293T cells
T1 sequence (Q9D659 33-308): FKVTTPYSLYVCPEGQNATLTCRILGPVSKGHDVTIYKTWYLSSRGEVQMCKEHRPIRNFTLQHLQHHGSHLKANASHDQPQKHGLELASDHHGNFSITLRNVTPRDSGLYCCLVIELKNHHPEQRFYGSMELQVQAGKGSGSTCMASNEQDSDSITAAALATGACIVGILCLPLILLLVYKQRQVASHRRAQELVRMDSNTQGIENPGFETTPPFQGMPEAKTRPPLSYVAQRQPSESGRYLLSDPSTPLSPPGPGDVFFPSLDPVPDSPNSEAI
In words: Cell-Based Binding High-Content Assay For mVISTA (HC CBA mVISTA). To be noted: read-out: HC CBA mVISTA IC50. The method in brief:
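mVISTA-293T, 4,000 cells/well; cpd ± washout step; biotin-peptide 2 nM final, 30 min RT; SA-Alexa 647 30 min; formaldehyde/Hoechst fix; HCS imaging; 4PL IC50.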

The structures appear in SMILES notation. pIC50: −log10 of the molar value. Positions of bridges follow the written chain, without caps; N, C: chain ends. Non-standard residues stand in square brackets, D forms with d. Residues, ends and D or L forms follow the SMILES beside them. *: point of attachment. Phe(4-COOH) = N[C@@H](Cc1ccc(C(=O)O)cc1)C(=O)O; 2Nal = N[C@@H](Cc1ccc2ccccc2c1)C(=O)O; Tic = O=C(O)[C@@H]1Cc2ccccc2CN1; Aad = N[C@@H](CCCC(=O)O)C(=O)O; Cit = NC(=O)NCCC[C@H](N)C(=O)O; Ahp(2) = CCCCC[C@H](N)C(=O)O; NMeNle = CCCC[C@H](NC)C(=O)O; Tle = CC(C)(C)[C@H](N)C(=O)O; Pip = O=C(O)[C@@H]1CCCCN1; Carboxymethyl = O=C(O)C*; NHexGly = CCCCCCNCC(=O)O; NMeA = CN[C@@H](C)C(=O)O; Nle = CCCC[C@H](N)C(=O)O; Orn = NCCC[C@H](N)C(=O)O; Dap = NC[C@H](N)C(=O)O

From patent US20240218022A1, “ANTI-VISTA MACROCYCLIC PEPTIDES AND COMPOSITIONS” (BRISTOL-MYERS SQUIBB COMPANY, priority 2022, published 2024) come the findings set out here.

As a reminder, the pIC50 is the IC50 on a negative log10 scale, so that one unit is a factor of ten.

Turning to `CCCCCCN1CC(=O)N[C@@H](Cc2ccc(O)cc2)C(=O)N[C@@H](CCCC)C(=O)N[C@@H](CC(N)=O)C(=O)N[C@@H](CCCNC(=N)N)C(=O)N(C)[C@@H](CCCC)C(=O)N[C@@H](CCCCC)C(=O)N2CCC[C@H]2C(=O)N[C@@H](C(C)C)C(=O)N[C@@H](CC(=O)O)C(=O)N[C@H](C(=O)N[C@@H](CN)C(=O)N[C@@H](CCC(N)=O)C(=O)O)CSCC(=O)N[C@@H](Cc2ccc3ccccc3c2)C(=O)N[C@@H](Cc2c[nH]c3ccccc23)C(=O)N[C@@H](CC(=O)O)C1=O` [compound 1135] ({CH2CO}-[2Nal]WD[NHexGly]Y[Nle]NR[NMeNle][Ahp(2)]PVDC[Dap]Q-OH; thioether N-14), the negative-log IC50 (pIC50) was 7.41.
Regarding `CCCCCCN1CC(=O)N[C@@H](Cc2ccc(O)cc2)C(=O)N[C@@H](CCCC)C(=O)N[C@@H](CC(N)=O)C(=O)N[C@@H](CCCNC(=N)N)C(=O)N(C)[C@@H](CCCC)C(=O)N[C@@H](CCCCC)C(=O)N2CCC[C@H]2C(=O)N[C@@H](C(C)C)C(=O)N[C@@H](CC(=O)O)C(=O)N[C@H](C(=O)N[C@@H](CN)C(=O)N[C@@H](CC(N)=O)C(=O)O)CSCC(=O)N[C@@H](Cc2ccc3ccccc3c2)C(=O)N[C@@H](Cc2c[nH]c3ccccc23)C(=O)N[C@@H](CC(=O)O)C1=O` [compound 1136] ({CH2CO}-[2Nal]WD[NHexGly]Y[Nle]NR[NMeNle][Ahp(2)]PVDC[Dap]N-OH; thioether N-14), the pIC50 is 8.02.
In the case of `CCCCCCN1CC(=O)N[C@@H](Cc2ccc(O)cc2)C(=O)N[C@@H](CCCC)C(=O)N[C@@H](CC(N)=O)C(=O)N[C@@H](CCCNC(=N)N)C(=O)N(C)[C@@H](CCCC)C(=O)N[C@@H](CCCCC)C(=O)N2CCC[C@H]2C(=O)N[C@@H](C(C)C)C(=O)N[C@@H](CC(=O)O)C(=O)N[C@H](C(=O)N[C@@H](CCCCN)C(=O)N[C@@H](CCC(N)=O)C(=O)O)CSCC(=O)N[C@@H](Cc2ccc3ccccc3c2)C(=O)N[C@@H](Cc2c[nH]c3ccccc23)C(=O)N[C@@H](CC(=O)O)C1=O` [compound 1137] ({CH2CO}-[2Nal]WD[NHexGly]Y[Nle]NR[NMeNle][Ahp(2)]PVDCKQ-OH; thioether N-14) it was 7.65; in that of `CCCCCCN1CC(=O)N[C@@H](Cc2ccc(O)cc2)C(=O)N[C@@H](CCCC)C(=O)N[C@@H](CC(N)=O)C(=O)N[C@@H](CCCNC(=N)N)C(=O)N(C)[C@@H](CCCC)C(=O)N[C@@H](CCCCC)C(=O)N2CCC[C@H]2C(=O)N[C@@H](C(C)C)C(=O)N[C@@H](CC(=O)O)C(=O)N[C@H](C(=O)N[C@@H](CCCN)C(=O)N[C@@H](CC(N)=O)C(=O)O)CSCC(=O)N[C@@H](Cc2ccc3ccccc3c2)C(=O)N[C@@H](Cc2c[nH]c3ccccc23)C(=O)N[C@@H](CC(=O)O)C1=O` [compound 1139] ({CH2CO}-[2Nal]WD[NHexGly]Y[Nle]NR[NMeNle][Ahp(2)]PVDC[Orn]N-OH; thioether N-14), 7.44.
The same measure for `CCCCCCN1CC(=O)N[C@@H](Cc2ccc(O)cc2)C(=O)N[C@@H](CCCC)C(=O)N[C@@H](CC(N)=O)C(=O)N[C@@H](CCCNC(=N)N)C(=O)N(C)[C@@H](CCCC)C(=O)N[C@@H](CCCCC)C(=O)N2CCC[C@H]2C(=O)N[C@@H](C(C)C)C(=O)N[C@@H](CC(=O)O)C(=O)N[C@H](C(=O)N[C@@H](CCCN)C(=O)N[C@@H](CCC(N)=O)C(=O)O)CSCC(=O)N[C@@H](Cc2ccc3ccccc3c2)C(=O)N[C@@H](Cc2c[nH]c3ccccc23)C(=O)N[C@@H](CC(=O)O)C1=O` [compound 1140] ({CH2CO}-[2Nal]WD[NHexGly]Y[Nle]NR[NMeNle][Ahp(2)]PVDC[Orn]Q-OH; thioether N-14): 7.72; for `CCCCCCN1CC(=O)N[C@@H](Cc2ccc(O)cc2)C(=O)N[C@@H](CCCC)C(=O)N[C@@H](CC(N)=O)C(=O)N[C@@H](CCCNC(=N)N)C(=O)N(C)[C@@H](CCCC)C(=O)N[C@@H](CCCCC)C(=O)N(C)[C@@H](C)C(=O)N[C@@H](C(C)C)C(=O)N[C@@H](CO)C(=O)N[C@H](C(=O)NCC(N)=O)CSCC(=O)N[C@@H](Cc2ccccc2)C(=O)N[C@@H](Cc2c[nH]c3ccccc23)C(=O)N[C@@H](CC(=O)O)C1=O` [compound 1143] ({CH2CO}-FWD[NHexGly]Y[Nle]NR[NMeNle][Ahp(2)][NMeA]VSCG-NH2; thioether N-14): 7.75.
The same measure for `CCCCCCN1CC(=O)N[C@@H](Cc2ccc(O)cc2)C(=O)N[C@@H](CCCC)C(=O)N[C@@H](CC(N)=O)C(=O)N[C@@H](CCCNC(N)=O)C(=O)N(C)[C@@H](CCCC)C(=O)N[C@@H](CCCCC)C(=O)N(C)[C@@H](C)C(=O)N[C@@H](C(C)C)C(=O)N[C@@H](CO)C(=O)N[C@H](C(=O)NCC(N)=O)CSCC(=O)N[C@@H](Cc2ccccc2)C(=O)N[C@@H](Cc2c[nH]c3ccccc23)C(=O)N[C@@H](CC(=O)O)C1=O` [compound 1144] ({CH2CO}-FWD[NHexGly]Y[Nle]N[Cit][NMeNle][Ahp(2)][NMeA]VSCG-NH2; thioether N-14): 7.80; for `CCCCCCN1CC(=O)N[C@@H](Cc2ccc(O)cc2)C(=O)N[C@@H](CCCC)C(=O)N[C@@H](CC(N)=O)C(=O)N[C@@H](CCCNC(=N)N)C(=O)N(C)[C@@H](CCCC)C(=O)N[C@@H](CCCCC)C(=O)N2CCCC[C@H]2C(=O)N[C@@H](C(C)C)C(=O)N[C@@H](CO)C(=O)N[C@H](C(=O)NCC(N)=O)CSCC(=O)N[C@@H](Cc2ccccc2)C(=O)N[C@@H](Cc2c[nH]c3ccccc23)C(=O)N[C@@H](CC(=O)O)C1=O` [compound 1145] ({CH2CO}-FWD[NHexGly]Y[Nle]NR[NMeNle][Ahp(2)][Pip]VSCG-NH2; thioether N-14): 7.54.
With `CCCCCCN1CC(=O)N[C@@H](Cc2ccc(O)cc2)C(=O)N[C@@H](CCCC)C(=O)N[C@@H](CC(N)=O)C(=O)N[C@@H](CCCNC(N)=O)C(=O)N(C)[C@@H](CCCC)C(=O)N[C@@H](CCCCC)C(=O)N2CCCC[C@H]2C(=O)N[C@@H](C(C)C)C(=O)N[C@@H](CO)C(=O)N[C@H](C(=O)NCC(N)=O)CSCC(=O)N[C@@H](Cc2ccccc2)C(=O)N[C@@H](Cc2c[nH]c3ccccc23)C(=O)N[C@@H](CC(=O)O)C1=O` [compound 1146] ({CH2CO}-FWD[NHexGly]Y[Nle]N[Cit][NMeNle][Ahp(2)][Pip]VSCG-NH2; thioether N-14), the pIC50 was 7.66.
In the case of `CCCCCCN1CC(=O)N[C@@H](Cc2ccc(O)cc2)C(=O)N[C@@H](CCCCC)C(=O)NCC(=O)N[C@@H](CCCNC(=N)N)C(=O)N[C@@H](CC(C)C)C(=O)N[C@@H](CCCCC)C(=O)N2CCCC[C@H]2C(=O)N[C@@H](C(C)C)C(=O)N[C@@H](CO)C(=O)N[C@H](C(=O)NCC(N)=O)CSCC(=O)N[C@@H](Cc2ccccc2)C(=O)N[C@@H](Cc2ccc(O)cc2)C(=O)N[C@@H](CC(=O)O)C1=O` [compound 1155] ({CH2CO}-FYD[NHexGly]Y[Ahp(2)]GRL[Ahp(2)][Pip]VSCG-NH2; thioether N-14) it was 7.62; in that of `CCCCCCN1CC(=O)N[C@@H](Cc2ccc(O)cc2)C(=O)N[C@@H](CC(C)C)C(=O)NCC(=O)N[C@@H](CCCNC(=N)N)C(=O)N2Cc3ccccc3C[C@H]2C(=O)N[C@@H](CCCCC)C(=O)N2CCC[C@H]2C(=O)N[C@@H](C(C)C)C(=O)N[C@@H](CO)C(=O)N[C@H](C(=O)NCC(N)=O)CSCC(=O)N[C@@H](Cc2ccccc2)C(=O)N[C@@H](Cc2ccc(O)cc2)C(=O)N[C@@H](CC(=O)O)C1=O` [compound 1158] ({CH2CO}-FYD[NHexGly]YLGR[Tic][Ahp(2)]PVSCG-NH2; thioether N-14), 7.95.
On to `CCCCCCN1CC(=O)N[C@@H](Cc2ccc(O)cc2)C(=O)N[C@@H](Cc2ccc(C(=O)O)cc2)C(=O)N[C@@H](CC(N)=O)C(=O)N[C@@H](CCCNC(=N)N)C(=O)N(C)[C@@H](CCCC)C(=O)N[C@@H](CCCCC)C(=O)N2CCC[C@H]2C(=O)N[C@@H](C(C)(C)C)C(=O)N[C@@H](CC(=O)O)C(=O)N[C@H](C(N)=O)CSCC(=O)N[C@@H](Cc2ccccc2)C(=O)N[C@@H](Cc2c[nH]c3ccccc23)C(=O)N[C@@H](CC(=O)O)C1=O` [compound 1167] ({CH2CO}-FWD[NHexGly]Y[Phe(4-COOH)]NR[NMeNle][Ahp(2)]P[Tle]DC-NH2; thioether N-14), for which the pIC50 is 7.41.
In the case of `CCCCCCN1CC(=O)N[C@@H](Cc2ccc(O)cc2)C(=O)N[C@@H](Cc2ccc(OCC(=O)O)cc2)C(=O)N[C@@H](CC(N)=O)C(=O)N[C@@H](CCCNC(=N)N)C(=O)N(C)[C@@H](CCCC)C(=O)N[C@@H](CCCCC)C(=O)N2CCC[C@H]2C(=O)N[C@@H](C(C)(C)C)C(=O)N[C@@H](CC(=O)O)C(=O)N[C@H](C(N)=O)CSCC(=O)N[C@@H](Cc2ccccc2)C(=O)N[C@@H](Cc2c[nH]c3ccccc23)C(=O)N[C@@H](CC(=O)O)C1=O` [compound 1168] ({CH2CO}-FWD[NHexGly]YY(Carboxymethyl)NR[NMeNle][Ahp(2)]P[Tle]DC-NH2; thioether N-14) it was 7.58; in that of `CCCCCCN1CC(=O)N[C@@H](Cc2ccc(O)cc2)C(=O)N[C@@H](CCCC(=O)O)C(=O)N[C@@H](CC(N)=O)C(=O)N[C@@H](CCCNC(=N)N)C(=O)N(C)[C@@H](CCCC)C(=O)N[C@@H](CCCCC)C(=O)N2CCC[C@H]2C(=O)N[C@@H](C(C)(C)C)C(=O)N[C@@H](CC(=O)O)C(=O)N[C@H](C(N)=O)CSCC(=O)N[C@@H](Cc2ccccc2)C(=O)N[C@@H](Cc2c[nH]c3ccccc23)C(=O)N[C@@H](CC(=O)O)C1=O` [compound 1169] ({CH2CO}-FWD[NHexGly]Y[Aad]NR[NMeNle][Ahp(2)]P[Tle]DC-NH2; thioether N-14), 7.42.
